Measurements as given in US9073855B2, “BCL-2 selective apoptosis-inducing agents for the treatment of cancer and immune diseases” (AbbVie Inc., priority 2008, dated 2015).

Experiments:
GST-Bcl-2 = GST-Bcl-2 (Homo sapiens, UniProt P10415); test: TR-FRET binding assay, GST-Bcl-2 with F-Bak peptide probe; settings: TR-FRET Binding Affinity, GST-Bcl-2, F-Bak peptide probe
Procedure, shortened: (§1)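 Compounds were serially diluted in DMSO from a 50 μM starting solution (2× the starting concentration; 10% DMSO). Plates were incubated for 3 h at room temperature, and TR-FRET was read with 340/35 nm excitation and emission at 520/525 nm (F-Bak) and 495/510 nm (Tb antibody). Ki values were calculated using Wang's competitive-binding equation.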

GST-Bcl-XL = GST-Bcl-XL (Homo sapiens, UniProt Q07817); test: TR-FRET binding assay, GST-Bcl-XL with F-Bak peptide probe; settings: TR-FRET Binding Affinity, GST-Bcl-XL, F-Bak peptide probe
Procedure, shortened: as §1

FL5.12/Bcl-2 cells = test: FL5.12/Bcl-2 cell viability assay under IL-3 withdrawal (CellTitre Glo); type: cell-based, murine; settings: Mus musculus, IL-3 withdrawn 48 hrs, then 24 hrs with compound
Procedure, shortened: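 Murine IL-3-dependent FL5.12 cells stably overexpressing Bcl-2 were deprived of IL-3 (WEHI-3B conditioned medium) for 48 h, then exposed to various compound concentrations for 24 h at 37 °C. Viability read by CellTiter-Glo luminescence.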

GST-Bcl-2, sequence (P10415 whole entry): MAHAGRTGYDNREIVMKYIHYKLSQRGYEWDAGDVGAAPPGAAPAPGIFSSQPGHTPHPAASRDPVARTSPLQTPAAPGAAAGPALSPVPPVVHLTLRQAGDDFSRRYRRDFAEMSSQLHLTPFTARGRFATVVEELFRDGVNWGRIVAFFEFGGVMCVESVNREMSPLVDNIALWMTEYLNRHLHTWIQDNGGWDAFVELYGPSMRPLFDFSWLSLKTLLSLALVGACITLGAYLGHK
GST-Bcl-XL, sequence (Q07817 whole entry): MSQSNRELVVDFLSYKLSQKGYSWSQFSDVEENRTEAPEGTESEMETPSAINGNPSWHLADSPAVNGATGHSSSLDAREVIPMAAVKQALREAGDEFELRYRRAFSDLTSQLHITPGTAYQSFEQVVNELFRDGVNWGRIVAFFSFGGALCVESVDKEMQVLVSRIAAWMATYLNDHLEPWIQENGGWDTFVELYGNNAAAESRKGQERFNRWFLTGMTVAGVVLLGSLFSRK

| SMILES | Ki (GST-Bcl-2) | Ki (GST-Bcl-XL) | EC50 (FL5.12/Bcl-2 cells) |
| --- | --- | --- | --- |
| COCCOCCNc1ccc(S(=O)(=O)NC(=O)c2ccc(N3CCN(CC4=C(c5ccc(Cl)cc5)CC(C)(C)CC4)CC3)cc2Oc2ccc3[nH]ccc3c2)cc1[N+](=O)[O-] [Example 298, 4-(4-{[2-(4-chlorophenyl)-4,4-dimethylcyclohex-1-en-1-yl]methyl}piperazin-1-yl)-2-(1H-indol-5-yloxy)-N-[(4-{[2-(2-methoxyethoxy)ethyl]amino}-3-nitrophenyl)sulfonyl]benzamide] | 0.315 nM | 446 nM | 19.5 nM |
| CO[C@H]1CC[C@@H](CNc2ccc(S(=O)(=O)NC(=O)c3ccc(N4CCN(CC5=C(c6ccc(Cl)cc6)CC(C)(C)CC5)CC4)cc3Oc3ccc4[nH]ccc4c3)cc2[N+](=O)[O-])CC1 [Example 313, Cis-4-(4-{[2-(4-chlorophenyl)-4,4-dimethylcyclohex-1-en-1-yl]methyl}piperazin-1-yl)-2-(1H-indol-5-yloxy)-N-[(4-{[(4-methoxycyclohexyl)methyl]amino}-3-nitrophenyl)sulfonyl]benzamide] | 0.044 nM | 66 nM | 82.9 nM |
| CC1(C)CCC(CN2CCN(c3ccc(C(=O)NS(=O)(=O)c4ccc(NCCCN5CCOCC5)c(S(=O)(=O)C(F)(F)F)c4)c(Oc4ccc5[nH]ccc5c4)c3)CC2)=C(c2ccc(Cl)cc2)C1 [Example 348, 4-(4-{[2-(4-chlorophenyl)-4,4-dimethylcyclohex-1-en-1-yl]methyl}piperazin-1-yl)-2-(1H-indol-5-yloxy)-N-({4-[(3-morpholin-4-ylpropyl)amino]-3-[(trifluoromethyl)sulfonyl]phenyl}sulfonyl)benzamide] | 0.302 nM | 29.3 nM | 87.2 nM |
| CC(c1ccccc1-c1ccc(Cl)cc1)N1CCN(c2ccc(C(=O)NS(=O)(=O)c3ccc(NCCCN4CCOCC4)c([N+](=O)[O-])c3)c(Oc3cccc4[nH]ccc34)c2)CC1 (stereo not drawn) [Example 247, 4-{4-[1-(4′-chloro-1,1′-biphenyl-2-yl)ethyl]piperazin-1-yl}-2-(1H-indol-4-yloxy)-N-({4-[(3-morpholin-4-ylpropyl)amino]-3-nitrophenyl}sulfonyl)benzamide] | 0.188 nM | 27.3 nM | 16.1 nM |
| CC1(C)CCC(CN2CCN(c3ccc(C(=O)NS(=O)(=O)c4ccc(NN5CCOCC5)c([N+](=O)[O-])c4)c(Oc4cccc5[nH]ccc45)c3)CC2)=C(c2ccc(Cl)cc2)C1 [Example 262, 4-(4-{[2-(4-chlorophenyl)-4,4-dimethylcyclohex-1-en-1-yl]methyl}piperazin-1-yl)-2-(1H-indol-4-yloxy)-N-{[4-(morpholin-4-ylamino)-3-nitrophenyl]sulfonyl}benzamide] | 3 nM | > 660 nM | 176 nM |
| CC1(C)CCC(CN2CCN(c3ccc(C(=O)NS(=O)(=O)c4ccc(NCc5cncs5)c([N+](=O)[O-])c4)c(Oc4ccc5[nH]ccc5c4)c3)CC2)=C(c2ccc(Cl)cc2)C1 [Example 288, 4-(4-{[2-(4-chlorophenyl)-4,4-dimethylcyclohex-1-en-1-yl]methyl}piperazin-1-yl)-2-(1H-indol-5-yloxy)-N-({3-nitro-4-[(1,3-thiazol-5-ylmethyl)amino]phenyl}sulfonyl)benzamide] | 0.177 nM | > 660 nM | 64.3 nM |
| CC1(C)CCC(CN2CCN(c3ccc(C(=O)NS(=O)(=O)c4ccc(NC5CCN(S(C)(=O)=O)CC5)c([N+](=O)[O-])c4)c(Oc4ccc5[nH]ccc5c4)c3)CC2)=C(c2ccc(Cl)cc2)C1 [Example 335, 4-(4-{[2-(4-chlorophenyl)-4,4-dimethylcyclohex-1-en-1-yl]methyl}piperazin-1-yl)-2-(1H-indol-5-yloxy)-N-[(4-{[1-(methylsulfonyl)piperidin-4-yl]amino}-3-nitrophenyl)sulfonyl]benzamide] | 0.438 nM | > 660 nM | 39 nM |
| CC1(C)CCC(CN2CCN(c3ccc(C(=O)NS(=O)(=O)c4ccc(NC5CCN(C6CCOCC6)CC5)c([N+](=O)[O-])c4)c(Oc4ccc5[nH]ccc5c4)c3)CC2CO)=C(c2ccc(Cl)cc2)C1 (stereo not drawn) [Example 219, 4-[4-{[2-(4-chlorophenyl)-4,4-dimethylcyclohex-1-en-1-yl]methyl}-3-(hydroxymethyl)piperazin-1-yl]-2-(1H-indol-5-yloxy)-N-({3-nitro-4-[(1-tetrahydro-2H-pyran-4-ylpiperidin-4-yl)amino]phenyl}sulfonyl)benzamide] | 0.236 nM | 29.9 nM | 23 nM |
| CC1(C)CCC(CN2CCN(c3ccc(C(=O)NS(=O)(=O)c4ccc(CCC5CCOCC5)c([N+](=O)[O-])c4)c(Oc4ccc5[nH]ccc5c4)c3)CC2)=C(c2ccc(Cl)cc2)C1 [Example 296, 4-(4-{[2-(4-chlorophenyl)-4,4-dimethylcyclohex-1-en-1-yl]methyl}piperazin-1-yl)-2-(1H-indol-5-yloxy)-N-{[3-nitro-4-(2-tetrahydro-2H-pyran-4-ylethyl)phenyl]sulfonyl}benzamide] | 0.651 nM | > 660 nM | 182 nM |
| CC(c1ccccc1-c1ccc(Cl)cc1)N1CCN(c2ccc(C(=O)NS(=O)(=O)c3ccc(NCC4CCOCC4)c([N+](=O)[O-])c3)c(Oc3ccc4[nH]ccc4c3)c2)CC1 (stereo not drawn) [Example 252, 4-{4-[1-(4′-chloro-1,1′-biphenyl-2-yl)ethyl]piperazin-1-yl}-2-(1H-indol-5-yloxy)-N-({3-nitro-4-[(tetrahydro-2H-pyran-4-ylmethyl)amino]phenyl}sulfonyl)benzamide] | 0.077 nM | > 660 nM | 6.62 nM |
| CC1(C)CCC(CN2CCN(c3ccc(C(=O)NS(=O)(=O)c4ccc(NC5CCN(Cc6nccs6)CC5)c([N+](=O)[O-])c4)c(Oc4ccc5[nH]ccc5c4)c3)CC2)=C(c2ccc(Cl)cc2)C1 [Example 230, 4-(4-{[2-(4-chlorophenyl)-4,4-dimethylcyclohex-1-en-1-yl]methyl}piperazin-1-yl)-2-(1H-indol-5-yloxy)-N-[(3-nitro-4-{[1-(1,3-thiazol-2-ylmethyl)piperidin-4-yl]amino}phenyl)sulfonyl]benzamide] | 8.82 nM | > 660 nM | 178 nM |
| CO[C@H]1CC[C@H](CNc2ccc(S(=O)(=O)NC(=O)c3ccc(N4CCN(CC5=C(c6ccc(Cl)cc6)CC(C)(C)CC5)CC4)cc3Oc3ccc4[nH]ccc4c3)cc2[N+](=O)[O-])CC1 [Example 311, Trans-4-(4-{[2-(4-chlorophenyl)-4,4-dimethylcyclohex-1-en-1-yl]methyl}piperazin-1-yl)-2-(1H-indol-5-yloxy)-N-[(4-{[(4-methoxycyclohexyl)methyl]amino}-3-nitrophenyl)sulfonyl]benzamide] | 0.26 nM | > 660 nM | 33.4 nM |
| CN(C)C1(CNc2ccc(S(=O)(=O)NC(=O)c3ccc(N4CCN(CC5=C(c6ccc(Cl)cc6)CC(C)(C)CC5)CC4)cc3Oc3ccc4[nH]ccc4c3)cc2[N+](=O)[O-])CCOCC1 [Example 207, 4-(4-{[2-(4-chlorophenyl)-4,4-dimethylcyclohex-1-en-1-yl]methyl}piperazin-1-yl)-N-{[4-({[4-(dimethylamino)tetrahydro-2H-pyran-4-yl]methyl}amino)-3-nitrophenyl]sulfonyl}-2-(1H-indol-5-yloxy)benzamide] | 0.218 nM | > 660 nM | 120 nM |
| CC1(C)CCC(CN2CCN(c3ccc(C(=O)NS(=O)(=O)c4ccc(NCC5(N)CCOCC5)c([N+](=O)[O-])c4)c(Oc4ccc5[nH]ccc5c4)c3)CC2)=C(c2ccc(Cl)cc2)C1 [Example 188, N-[(4-{[(4-aminotetrahydro-2H-pyran-4-yl)methyl]amino}-3-nitrophenyl)sulfonyl]-4-(4-{[2-(4-chlorophenyl)-4,4-dimethylcyclohex-1-en-1-yl]methyl}piperazin-1-yl)-2-(1H-indol-5-yloxy)benzamide] | 0.102 nM | 115 nM | 24.7 nM |
| CC1(C)CCC(CN2CCN(c3ccc(C(=O)NS(=O)(=O)c4ccc(OC[C@H]5COCCO5)c([N+](=O)[O-])c4)c(Oc4ccc5[nH]ccc5c4)c3)CC2)=C(c2ccc(Cl)cc2)C1 [Example 346, 4-(4-{[2-(4-chlorophenyl)-4,4-dimethylcyclohex-1-en-1-yl]methyl}piperazin-1-yl)-N-({4-[(2R)-1,4-dioxan-2-ylmethoxy]-3-nitrophenyl}sulfonyl)-2-(1H-indol-5-yloxy)benzamide] | 0.018 nM | 204 nM | 17.5 nM |
| CC(=O)N1CCC(Nc2ccc(S(=O)(=O)NC(=O)c3ccc(N4CCN(CC5=C(c6ccc(Cl)cc6)CC(C)(C)CC5)CC4)cc3Oc3ccc4[nH]ccc4c3)cc2[N+](=O)[O-])CC1 [Example 334, N-({4-[(1-acetylpiperidin-4-yl)amino]-3-nitrophenyl}sulfonyl)-4-(4-{[2-(4-chlorophenyl)-4,4-dimethylcyclohex-1-en-1-yl]methyl}piperazin-1-yl)-2-(1H-indol-5-yloxy)benzamide] | 0.179 nM | > 660 nM | 65.9 nM |
| CC1(C)CCC(CN2CCN(c3ccc(C(=O)NS(=O)(=O)c4ccc(S(C)(=O)=O)cc4)c(Oc4cccc5[nH]ccc45)c3)CC2)=C(c2ccc(Cl)cc2)C1 [Example 383, 4-(4-{[2-(4-chlorophenyl)-4,4-dimethylcyclohex-1-en-1-yl]methyl}piperazin-1-yl)-2-(1H-indol-4-yloxy)-N-{[4-(methylsulfonyl)phenyl]sulfonyl}benzamide] | 2.17 nM | > 660 nM | > 500 nM |
